Assay results reported in ChEMBL document CHEMBL1201862, “PubChem BioAssay data set” (2004).
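Briefly, cells in 96-well plates were exposed to five compound concentrations for 48 h, and endpoints were estimated by linear interpolation. GI50 is the concentration that inhibits growth by half.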 Active and inactive are the calls of the source. Cut-off read from the data, not from the text of the source: active = GI50 up to about 1.1 µM and inactive = higher.

Columns and labels:
Assay in all cases: NCI-60 cell line screen, 48 h
T47D = tested on: T47D
HL-60 = tested on: HL-60
Malme-3M = tested on: Malme-3M
NCI-H460 = tested on: NCI-H460
IGROV-1 = tested on: IGROV-1
A549 = tested on: A549
SK-MEL-2 = tested on: SK-MEL-2
UACC-62 = tested on: UACC-62
HT-29 = tested on: HT-29
EKVX = tested on: EKVX
SK-MEL-5 = tested on: SK-MEL-5
Hs-578T = tested on: Hs-578T
NCI-H23 = tested on: NCI-H23
UACC-257 = tested on: UACC-257
LOX IMVI = tested on: LOX IMVI
PC-3 = tested on: PC-3
COLO 205 = tested on: COLO 205
OVCAR-5 = tested on: OVCAR-5
NCI-H226 = tested on: NCI-H226
OVCAR-3 = tested on: OVCAR-3
KM12 = tested on: KM12
OVCAR-4 = tested on: OVCAR-4
CAKI-1 = tested on: CAKI-1
MOLT-4 = tested on: MOLT-4
OVCAR-8 = tested on: OVCAR-8
SK-OV-3 = tested on: SK-OV-3
M14 = tested on: M14
SR = tested on: SR
MDA-MB-231 = tested on: MDA-MB-231
A498 = tested on: A498
HCT-15 = tested on: HCT-15
HOP-62 = tested on: HOP-62
MCF7 = tested on: MCF7
NCI/ADR-RES = tested on: NCI/ADR-RES
SN12C = tested on: SN12C
786-0 = tested on: 786-0
MDA-N = tested on: MDA-N
HCT-116 = tested on: HCT-116
SF-295 = tested on: SF-295
SF-539 = tested on: SF-539
HCC 2998 = tested on: HCC 2998
MDA-MB-435 = tested on: MDA-MB-435
TK-10 = tested on: TK-10
ACHN = tested on: ACHN
CCRF-CEM = tested on: CCRF-CEM
SW-620 = tested on: SW-620
SNB-75 = tested on: SNB-75
RXF 393 = tested on: RXF 393
NCI-H522 = tested on: NCI-H522
U-251 = tested on: U-251
SNB-19 = tested on: SNB-19
RPMI-8226 = tested on: RPMI-8226
DU-145 = tested on: DU-145
SK-MEL-28 = tested on: SK-MEL-28
UO-31 = tested on: UO-31
HOP-92 = tested on: HOP-92

Cc1cc(-c2cccc3ccccc23)c(C#N)c(=S)n1C1OC(CO)C(O)C(O)C1O (stereo not given)
GI50 (T47D): 52.7 µM (inactive)
GI50 (HL-60): > 100 µM (inactive)
GI50 (Malme-3M): > 100 µM (inactive)
GI50 (NCI-H460): > 100 µM (inactive)
GI50 (IGROV-1): > 100 µM (inactive)
GI50 (A549): > 100 µM (inactive)
GI50 (SK-MEL-2): > 100 µM (inactive)
GI50 (UACC-62): > 100 µM (inactive)
GI50 (HT-29): > 100 µM (inactive)
GI50 (EKVX): > 100 µM (inactive)
GI50 (SK-MEL-5): 67 µM (inactive)
GI50 (Hs-578T): 86.5 µM (inactive)
GI50 (NCI-H23): > 100 µM (inactive)
GI50 (UACC-257): > 100 µM (inactive)
GI50 (LOX IMVI): > 100 µM (inactive)
GI50 (PC-3): > 100 µM (inactive)
GI50 (COLO 205): > 100 µM (inactive)
GI50 (OVCAR-5): > 100 µM (inactive)
GI50 (NCI-H226): 50 µM (inactive)
GI50 (OVCAR-3): > 100 µM (inactive)
GI50 (KM12): > 100 µM (inactive)
GI50 (OVCAR-4): 60.3 µM (inactive)
GI50 (CAKI-1): > 100 µM (inactive)
GI50 (MOLT-4): > 100 µM (inactive)
GI50 (OVCAR-8): > 100 µM (inactive)
GI50 (SK-OV-3): > 100 µM (inactive)
GI50 (M14): > 100 µM (inactive)
GI50 (SR): 98.4 µM (inactive)
GI50 (MDA-MB-231): > 100 µM (inactive)
GI50 (A498): > 100 µM (inactive)
GI50 (HCT-15): > 100 µM
GI50 (HOP-62): > 100 µM (inactive)
GI50 (MCF7): > 100 µM (inactive)
GI50 (NCI/ADR-RES): > 100 µM (inactive)
GI50 (SN12C): 82.8 µM (inactive)
GI50 (786-0): > 100 µM (inactive)
GI50 (MDA-N): > 100 µM (inactive)
GI50 (HCT-116): > 100 µM (inactive)
GI50 (SF-295): > 100 µM (inactive)
GI50 (SF-539): > 100 µM (inactive)
GI50 (HCC 2998): > 100 µM (inactive)
GI50 (MDA-MB-435): > 100 µM (inactive)
GI50 (TK-10): > 100 µM (inactive)
GI50 (ACHN): > 100 µM (inactive)
GI50 (CCRF-CEM): 71.1 µM (inactive)
GI50 (SW-620): > 100 µM (inactive)
GI50 (SNB-75): 0.0379 µM (active)
GI50 (RXF 393): > 100 µM (inactive)

O=C1c2ccccc2-c2oc(=O)c3ccccc3c21
GI50 (T47D): > 100 µM (inactive)
GI50 (HL-60): > 100 µM (inactive)
GI50 (NCI-H460): > 100 µM (inactive)
GI50 (IGROV-1): 32.7 µM (inactive)
GI50 (SK-MEL-2): > 100 µM (inactive)
GI50 (UACC-62): > 100 µM (inactive)
GI50 (HT-29): > 100 µM (inactive)
GI50 (NCI-H522): 0.962 µM (active)
GI50 (EKVX): 24.8 µM (inactive)
GI50 (SK-MEL-5): > 100 µM (inactive)
GI50 (Hs-578T): > 100 µM (inactive)
GI50 (NCI-H23): > 100 µM (inactive)
GI50 (UACC-257): > 100 µM (inactive)
GI50 (LOX IMVI): > 100 µM (inactive)
GI50 (PC-3): > 100 µM (inactive)
GI50 (COLO 205): > 100 µM (inactive)
GI50 (OVCAR-5): > 100 µM (inactive)
GI50 (NCI-H226): > 100 µM (inactive)
GI50 (OVCAR-3): > 100 µM (inactive)
GI50 (U-251): > 100 µM (inactive)
GI50 (KM12): > 100 µM (inactive)
GI50 (SNB-19): > 100 µM (inactive)
GI50 (OVCAR-4): > 100 µM (inactive)
GI50 (CAKI-1): > 100 µM (inactive)
GI50 (MOLT-4): > 100 µM (inactive)
GI50 (OVCAR-8): > 100 µM (inactive)
GI50 (SK-OV-3): > 100 µM (inactive)
GI50 (RPMI-8226): 41.3 µM (inactive)
GI50 (M14): > 100 µM (inactive)
GI50 (MDA-MB-231): > 100 µM (inactive)
GI50 (DU-145): > 100 µM (inactive)
GI50 (A498): > 100 µM (inactive)
GI50 (HCT-15): > 100 µM
GI50 (HOP-62): > 100 µM (inactive)
GI50 (MCF7): > 100 µM (inactive)
GI50 (NCI/ADR-RES): > 100 µM (inactive)
GI50 (SN12C): > 100 µM (inactive)
GI50 (786-0): > 100 µM (inactive)
GI50 (MDA-N): > 100 µM (inactive)
GI50 (SK-MEL-28): > 100 µM (inactive)
GI50 (UO-31): > 100 µM (inactive)
GI50 (HCT-116): > 100 µM (inactive)
GI50 (SF-295): > 100 µM (inactive)
GI50 (HOP-92): > 100 µM (inactive)
GI50 (SF-539): > 100 µM (inactive)
GI50 (MDA-MB-435): > 100 µM (inactive)
GI50 (TK-10): > 100 µM (inactive)
GI50 (ACHN): > 100 µM (inactive)
GI50 (CCRF-CEM): > 100 µM (inactive)
GI50 (SW-620): > 100 µM (inactive)
GI50 (SNB-75): > 100 µM (inactive)
GI50 (RXF 393): > 100 µM (inactive)
